Assay results taken from article PMC6316393, “Cytotoxic Sesterterpenes from Thai Marine Sponge Hyrtios erectus” (Marine Drugs, 2018).
Like-named read-outs stand apart in the source and are kept apart here.

How the values were obtained:
[1] = tested on: KB (human epidermoid carcinoma in the mouth); test: MTT cytotoxicity assay, KB; type: cell-based; conditions: KB cell line
Protocol: (§1) The SI value is the ratio of IC50 of normal cell (MRC-5) and IC50 of cancer cell line.
(§2) Cytotoxic activity for adhesive cell lines including HepG2, HeLa, HuCCA-1, A549, H69AR, KB, T47D, MDA-MB-231, and MRC-5 cell lines were evaluated with the 3-(4,5-dimethylthiazol-2-yl)-2,5-diphenyltetrazoliumbromide (MTT) assay. For the non-adhesive MOLT-3 cell line, the cytotoxicity was assessed using the 2,3-bis-(2-methoxy-4-nitro-5-sulphenyl-(2H)-tetrazolium-5-carboxanilide (XTT) assay. Etoposide and doxorubicin were used as positive controls (Table 4)

[2] = tested on: HuCCA-1 (human chlolangiocarcinoma); test: MTT cytotoxicity assay, HuCCA-1
Protocol: as §1, §2

[3] = tested on: HeLa (human cervical carcinoma); test: MTT cytotoxicity assay, HeLa
Protocol: as §1, §2

[4] = tested on: MDA-MB-231 (hormone independent breast cancer); test: MTT cytotoxicity assay, MDA-MB-231
Protocol: as §1, §2

[5] = tested on: T47D (hormone dependent breast cancer); test: MTT cytotoxicity assay, T47D; type: cell-based; conditions: Homo sapiens, T47D cell line
Protocol: (§3) Cytotoxic activity for adhesive cell lines including HepG2, HeLa, HuCCA-1, A549, H69AR, KB, T47D, MDA-MB-231, and MRC-5 cell lines were evaluated with the 3-(4,5-dimethylthiazol-2-yl)-2,5-diphenyltetrazoliumbromide (MTT) assay [25, 26]. For the non-adhesive MOLT-3 cell line, the cytotoxicity was assessed using the 2,3-bis-(2-methoxy-4-nitro-5-sulphenyl-(2H)-tetrazolium-5-carboxanilide (XTT) assay [27]. Etoposide and doxorubicin were used as positive controls (Table 4)

[6] = tested on: H69AR (multidrug resistance small-cell lung cancer); test: MTT cytotoxicity assay, H69AR; type: cell-based; conditions: Homo sapiens, H69AR cell line
Protocol: as §3

[7] = tested on: HepG2 (hepatocarcinoma); test: MTT cytotoxicity assay, HepG2
Protocol: as §1, §2

[8] = tested on: L1210 (mouse lymphocytic leukemia); conditions: read-out: Cytotoxicity IC50, L1210, cited from earlier work
[9] = tested on: A549 (non-small-cell lung cancer); test: MTT cytotoxicity assay, A549
Protocol: as §1, §2

[10] = tested on: MOLT-3 (acute lymphoblastic leukemia); test: XTT cytotoxicity assay, MOLT-3; conditions: for selectivity index (SI), MOLT-3: ratio of IC50 of normal cell (MRC-5) and IC50 of MOLT-3
Protocol: as §1, §2

[11] = tested on: KB (mouth epidermal carcinoma); set-up: method as in PMID 8149454; conditions: previously reported; read-out: Cytotoxicity IC50, KB; cited from earlier work
[12] = tested on: A549 cells; set-up: method as in PMID 12662110; conditions: reported in the literature; read-out: Cytotoxicity IC50, A549; cited from earlier work
[13] = MTT cytotoxicity assay, MRC-5 normal cells; conditions: human
Protocol: as §1, §2

[14] = tested on: MRC-5 (normal embryonic lung cell); test: MTT cytotoxicity assay, MRC-5 normal cells; conditions: read-out: Cytotoxicity IC50, MRC-5; MRC-5 normal cell line, MTT assay
Protocol: as §1, §2

[15] = Homo sapiens, HuCC-A1, read-out: Cytotoxicity IC50, HuCCA-1, HuCCA-1 cell line, MTT assay
[16] = Homo sapiens, HeLa, read-out: Cytotoxicity IC50, HeLa, HeLa cell line, MTT assay
[17] = Homo sapiens, MDA-MB-231, read-out: Cytotoxicity IC50, MDA-MB-231, MDA-MB-231 cell line, MTT assay
[18] = Homo sapiens, HepG2, read-out: Cytotoxicity IC50, HepG2, HepG2 cell line, MTT assay
[19] = Homo sapiens, A549, read-out: Cytotoxicity IC50, A549, A549 cell line, MTT assay
[20] = Homo sapiens, MOLT-3, read-out: Cytotoxicity IC50, MOLT-3, MOLT-3 cell line, XTT assay
[21] = Homo sapiens, HepG2, read-out: Cytotoxicity IC50, HepG2
[22] = Homo sapiens, HuCC-A1, read-out: Cytotoxicity IC50, HuCCA-1
[23] = Homo sapiens, HeLa, read-out: Cytotoxicity IC50, HeLa
[24] = Homo sapiens, MDA-MB-231, read-out: Cytotoxicity IC50, MDA-MB-231
[25] = Homo sapiens, A549, read-out: Cytotoxicity IC50, A549
[26] = Homo sapiens, MOLT-3, read-out: Cytotoxicity IC50, MOLT-3
[27] = MRC-5 cells (normal embryonic lung cells), Cytotoxicity IC50, MRC-5, MRC-5 normal cell line, MTT assay
[28] = read-out: Cytotoxicity IC50, HeLa, HeLa cell line, MTT assay
[29] = read-out: Cytotoxicity IC50, MDA-MB-231, MDA-MB-231 cell line, MTT assay

Row | Compound | IC50 [2, 15] | IC50 [3, 16] | IC50 [4, 17] | IC50 [7, 18] | IC50 [9, 19] | IC50 [10, 20] | other results
1 | CC1(C)CCC[C@@]2(C)C1CC[C@]1(C)C2C[C@@H](O)[C@]2(C)C3COC(=O)C3=CCC12 (stereo partly drawn) [Compound 18, 12-epi-O-deacetyl-19-deoxyscalarin] | 41.5 µM | 23.3 µM | 5.96 µM |  |  |  | IC50 [1]: 6.99 µM; IC50 [5]: 5.18 µM; IC50 [6]: 57 µM
2 | CC1=C(CC/C(C)=C/CC/C(=C/CC2OC(=O)C=C2CO)CO)C(C)(C)CCC1 (stereo not drawn) [Compound 13, (6Z)-neomanoalide] | 94.7 µM | 59.3 µM | 92 µM | 88.7 µM | 114 µM | 34.1 µM | IC50 [8]: 13.9 µM
3 | CC1=C(CC/C(C)=C/CCC2=CC[C@H](C3=CC(=O)O[C@H]3O)O[C@H]2O)C(C)(C)CCC1 [Compound 11, manoalide] |  |  |  |  |  |  | IC50 [7, 21]: > 50 µg/mL; IC50 [11]: 630 nM; IC50 ([8]; previously reported): 0.053 µM; IC50 [2, 22]: 84.5 µM; IC50 [3, 23]: 87 µM; IC50 [4, 24]: > 50 µg/mL; IC50 [9, 25]: > 50 µg/mL; IC50 [10, 26]: 17.4 µM
4 | CC1(C)CCC[C@@]2(C)C1CC[C@]1(C)C2C[C@@H](O)[C@]2(C)C3C(=CCC12)C(=O)OC3O (stereo partly drawn) [Compound 20, 12-O-deacetyl-12-epi-scalarin] | 87.1 µM |  |  | 27.4 µM | 73.4 µM | 7.64 µM | IC50 [12]: 36.8 µM; selectivity index (SI), MOLT-3 [10]: 9; IC50 [13, 27]: 71 µM
5 | COc1cc([C@@H]2c3cc4c(cc3[C@@H](O[C@@H]3O[C@@H]5CO[C@@H](C)O[C@H]5[C@H](O)[C@H]3O)[C@H]3COC(=O)[C@H]23)OCO4)cc(OC)c1O [Etoposide, reference compound] |  |  |  |  |  | 0.04 ± 0.01 µM | 
6 | CC1=C(CC/C(C)=C/CC/C(=C/C[C@@H](O)C2=CC(=O)OC2)CO)C(C)(C)CCC1 [Compound 10, luffariolide B] | > 50 µg/mL | 78.7 µM | > 50 µg/mL | > 50 µg/mL | > 50 µg/mL | 35.5 µM | IC50 [8]: 3.23 µM
7 | COC1OC(=O)C=C1C(O)CC=C(C=O)CCC=C(C)CCC1=C(C)CCCC1(C)C (stereo not drawn) [Compound 3, seco-manoalide-25-methyl ether] | 24.7 µM | 20 µM | 40.1 µM | 27.9 µM | 41.1 µM | 15.8 µM | 
8 | COC1OC(C2=CC(=O)OC2O)CC=C1CCC=C(C)CCC1=C(C)CCCC1(C)C (stereo not drawn) [Compound 9, 24-O-methylmanoalide] |  |  |  |  |  |  | IC50 ([7]; read-out: Cytotoxicity IC50, HepG2, HepG2 cell line, MTT assay): 27.9 µM; IC50 ([2]; read-out: Cytotoxicity IC50, HuCCA-1, HuCCA-1 cell line, MTT assay): 8.6 µM; selectivity index (SI), HeLa ([3]; ratio of IC50 of normal cell (MRC-5) and IC50 of HeLa): 7; IC50 [3, 28]: 1.51 µM; IC50 [4, 29]: 18.6 µM; IC50 ([9]; read-out: Cytotoxicity IC50, A549, A549 cell line, MTT assay): 12 µM; selectivity index (SI), MOLT-3 [10]: 8; IC50 ([10]; read-out: Cytotoxicity IC50, MOLT-3, MOLT-3 cell line, XTT assay): 1.3 µM; IC50 [14]: 10.8 µM
9 | COC(=O)c1cc2c(cn1)[nH]c1ccc(O)cc12 [Compound 23, variabine B] | > 50 µg/mL | > 50 µg/mL |  | > 50 µg/mL | > 50 µg/mL | 78 µM | 
10 | CC(=O)O[C@@H]1CC2[C@@]3(C)CCCC(C)(C)C3CC[C@@]2(C)C2CCC3=C(C(=O)OC3)[C@]21C (stereo partly drawn) [Compound 17, 12-acetylscalarolide] | 60.8 µM | 63.1 µM | 60.8 µM |  |  |  | IC50 [1]: 63.1 µM; IC50 [5]: 42.1 µM; IC50 [6]: 107 µM
11 | COc1cccc2c1C(=O)c1c(O)c3c(c(O)c1C2=O)C[C@@](O)(C(=O)CO)C[C@@H]3O[C@H]1C[C@H](N)[C@H](O)[C@H](C)O1 [Doxorubicin, reference compound] | 0.4 ± 0.03 µM | 0.19 µM | 1.64 ± 0.17 µM | 0.36 ± 0.05 µM | 0.35 ± 0.02 µM |  | IC50 [1]: 1.64 ± 0.15 µM; IC50 [13, 27]: 3.16 ± 0.1 µM
12 | CC1=C(CC/C(C)=C/CC/C(=C\CC2OC(=O)C=C2CO)CO)C(C)(C)CCC1 (stereo not drawn) [Compound 12, (6E)-neomanoalide] | 119 µM | 79.2 µM | > 50 µg/mL | > 50 µg/mL | > 50 µg/mL | 37.8 µM | IC50 [8]: 24.4 µM
13 | CC1=C(CC[C@@](C)(O)[C@@H]2CCC(=O)O2)C(C)(C)CCC1 [Compound 16, cavernosine] | > 50 µg/mL | 77.5 µM | > 50 µg/mL | > 50 µg/mL | > 50 µg/mL | 124 µM | 
14 | COC1OC(C2=CC(=O)OC2O)CC=C1CCC=C(C)CCC1=C(C)CCCC1(C)C (stereo not drawn) [Compound 8, 24-O-methylmanoalide] | 11 µM |  |  | 53.5 µM | 16.8 µM | 1.77 µM | IC50 [3, 28]: 8.42 µM; IC50 [4, 29]: 39.5 µM; selectivity index (SI), MOLT-3 [10]: 7; IC50 [13, 27]: 13 µM
15 | CC(=O)O[C@H]1C[C@H]2[C@]3(C)CC[C@H]4C(C)(C)CCC[C@]4(C)[C@H]3C[C@@H](O)[C@]2(C)c2cocc21 [Compound 15, scalarafuran] | 49.1 µM | 63.1 µM | 14 µM |  |  |  | IC50 [1]: 58.4 µM; IC50 [5]: 28 µM; IC50 [6]: 51.4 µM
16 | CC(=O)O[C@@H]1CC2[C@@]3(C)CCCC(C)(C)C3CC[C@@]2(C)C2CC=C3C(=O)OC(O)C3[C@]21C (stereo partly drawn) [Compound 19, 12-epi-scalarin] | 60.8 µM | 65.3 µM |  | 75.5 µM | 60.8 µM | 13.8 µM | 
17 | CC1=C(CC/C(C)=C/CC/C(C=O)=C\C[C@@H](O)C2=CC(=O)OC2O)C(C)(C)CCC1 (stereo partly drawn) [Compound 14, seco-manoalide] |  |  |  |  |  |  | IC50 [7, 21]: 102 µM; IC50 [2, 22]: 47.4 µM; IC50 [3, 23]: 21.8 µM; IC50 [4, 24]: 84.1 µM; IC50 [9, 25]: 58.1 µM; IC50 [10, 26]: 6.68 µM; IC50 [13]: 17.5 µM
18 | CC(=O)OC/C(=C\CC1OC(=O)C=C1CO)CC/C=C(\C)CCC1=C(C)CCCC1(C)C (stereo not drawn) [Compound 7, (6Z)-neomanoalide-24-acetate] | > 50 µg/mL | 88 µM | > 50 µg/mL | > 50 µg/mL | > 50 µg/mL | 40.1 µM | 
19 | 4-((2R)-2-hydroxy-16-methyloctadecyl)furan-2(5H)-one [Compound 5] |  |  |  |  |  |  | IC50 [7]: 107 µM; IC50 [2]: 65.6 µM; IC50 [3]: 28.8 µM; IC50 [4]: 89.3 µM; IC50 [9]: 57.2 µM; IC50 [10]: 31.8 µM
